# Active and inactive are the calls of the source. The rule behind the calls is not given here.
# Test system: rodent lifetime carcinogenesis bioassay, tumor incidence TD50
# Assay: chronic cancer bioassays in animals – CPDB, compiled studies (AID 1745844)
# [1] = mouse, strain B6AKF1, females, oral dosing, site: any site (literature study), lesion: several types, types named in the paper, dosed 76 weeks, study length 76 weeks
# [2] = mouse, strain B6AKF1, females, oral dosing, site: liver, lesion: hepatoma, dosed 76 weeks, study length 76 weeks
# [3] = mouse, strain B6AKF1, males, oral dosing, site: any site (literature study), lesion: several types, types named in the paper, dosed 76 weeks, study length 76 weeks
# [4] = mouse, strain B6AKF1, males, oral dosing, site: liver, lesion: hepatoma, dosed 76 weeks, study length 76 weeks
# [5] = mouse, strain B6AKF1, males, oral dosing, site: lung, lesion: adenoma, dosed 76 weeks, study length 76 weeks
# [6] = mouse, strain B6C3F1, females, oral dosing, site: any site (literature study), lesion: several types, types named in the paper, dosed 76 weeks, study length 76 weeks
# [7] = mouse, strain B6C3F1, females, oral dosing, site: liver, lesion: hepatoma, dosed 76 weeks, study length 76 weeks
# [8] = mouse, strain B6C3F1, males, oral dosing, site: any site (literature study), lesion: several types, types named in the paper, dosed 76 weeks, study length 76 weeks
# [9] = mouse, strain B6C3F1, males, oral dosing, site: liver, lesion: hepatoma, dosed 76 weeks, study length 76 weeks
# [10] = mouse, strain B6C3F1, males, oral dosing, site: lung, lesion: adenoma, dosed 76 weeks, study length 76 weeks
structure (smiles),measurement,setting,value
[S-]c1nc2ccccc2s1.[S-]c1nc2ccccc2s1.[Zn+2],carcinogen call,[1],negative (inactive)
same,carcinogen call,[2],negative (inactive)
same,carcinogen call,"mouse, strain B6AKF1, females, oral dosing, site: lung, lesion: adenoma, dosed 76 weeks, study length 76 weeks",negative (inactive)
same,carcinogen call,[3],negative (inactive)
same,carcinogen call,[4],negative (inactive)
same,carcinogen call,[5],negative (inactive)
same,TD50,[6],2790 mg/kg/day (inactive)
same,carcinogen call,[7],negative (inactive)
same,carcinogen call,"mouse, strain B6C3F1, females, oral dosing, site: lung, lesion: several types, types named in the paper, dosed 76 weeks, study length 76 weeks",negative (inactive)
same,TD50,[8],319 mg/kg/day (inactive)
same,TD50,[9],388 mg/kg/day (inactive)
same,TD50,[10],2750 mg/kg/day (inactive)
CC1(C)[C@@H](O[C@H]2O[C@H](C(=O)O)[C@@H](O)[C@H](O)[C@H]2O[C@@H]2O[C@H](C(=O)O)[C@@H](O)[C@H](O)[C@H]2O)CC[C@]2(C)[C@H]3C(=O)C=C4[C@@H]5C[C@@](C)(C(=O)O)CC[C@]5(C)CC[C@@]4(C)[C@]3(C)CC[C@@H]12,carcinogen call,"mouse, strain B6C3F1, females, in drinking water, site: any site (literature study), lesion: several types, types named in the paper, dosed 96 weeks, study length 110 weeks",negative (inactive)
same,carcinogen call,"mouse, strain B6C3F1, females, in drinking water, site: liver, lesion: hemangioma, dosed 96 weeks, study length 110 weeks",negative (inactive)
same,TD50,"mouse, strain B6C3F1, females, in drinking water, site: liver, lesion: hepatocellular adenoma, dosed 96 weeks, study length 110 weeks",28900 mg/kg/day (inactive)
same,TD50,"mouse, strain B6C3F1, females, in drinking water, site: liver, lesion: hepatocellular carcinoma, dosed 96 weeks, study length 110 weeks",29000 mg/kg/day (inactive)
same,carcinogen call,"mouse, strain B6C3F1, females, in drinking water, site: lung, lesion: adenocarcinoma, dosed 96 weeks, study length 110 weeks",negative (inactive)
same,TD50,"mouse, strain B6C3F1, females, in drinking water, site: lung, lesion: adenoma, dosed 96 weeks, study length 110 weeks",14400 mg/kg/day (inactive)
same,TD50,"mouse, strain B6C3F1, males, in drinking water, site: any site (literature study), lesion: several types, types named in the paper, dosed 96 weeks, study length 110 weeks",3170 mg/kg/day (inactive)
same,carcinogen call,"mouse, strain B6C3F1, males, in drinking water, site: liver, lesion: hemangioma, dosed 96 weeks, study length 110 weeks",negative (inactive)
same,carcinogen call,"mouse, strain B6C3F1, males, in drinking water, site: liver, lesion: hepatocellular adenoma, dosed 96 weeks, study length 110 weeks",negative (inactive)
same,carcinogen call,"mouse, strain B6C3F1, males, in drinking water, site: liver, lesion: hepatocellular carcinoma, dosed 96 weeks, study length 110 weeks",negative (inactive)
same,carcinogen call,"mouse, strain B6C3F1, males, in drinking water, site: lung, lesion: adenocarcinoma, dosed 96 weeks, study length 110 weeks",negative (inactive)
same,carcinogen call,"mouse, strain B6C3F1, males, in drinking water, site: lung, lesion: adenoma, dosed 96 weeks, study length 110 weeks",negative (inactive)
CN(CCCO)N=O,TD50,"rat, strain Fischer 344, females, by gavage, site: liver, lesion: neoplastic nodule, dosed 130 weeks, study length 130 weeks",3.48 mg/kg/day
same,TD50,"rat, strain Fischer 344, females, by gavage, site: lung, lesion: alveolar/bronchiolar adenoma, dosed 130 weeks, study length 130 weeks",14.4 mg/kg/day
same,TD50,"rat, strain Fischer 344, females, by gavage, site: lung, lesion: alveolar/bronchiolar carcinoma, dosed 130 weeks, study length 130 weeks",24.9 mg/kg/day
same,TD50,"rat, strain Fischer 344, females, by gavage, site: lung, lesion: several types, types named in the paper, dosed 130 weeks, study length 130 weeks",8.06 mg/kg/day
same,TD50,"rat, strain Fischer 344, males, by gavage, site: liver, lesion: neoplastic nodule, dosed 130 weeks, study length 130 weeks",4.78 mg/kg/day
same,TD50,"rat, strain Fischer 344, males, by gavage, site: lung, lesion: alveolar/bronchiolar adenoma, dosed 130 weeks, study length 130 weeks",8.46 mg/kg/day
same,TD50,"rat, strain Fischer 344, males, by gavage, site: lung, lesion: alveolar/bronchiolar carcinoma, dosed 130 weeks, study length 130 weeks",2.46 mg/kg/day
same,TD50,"rat, strain Fischer 344, males, by gavage, site: lung, lesion: several types, types named in the paper, dosed 130 weeks, study length 130 weeks",1.09 mg/kg/day
same,TD50,"rat, strain Fischer 344, males, by gavage, site: testis, lesion: interstitial-cell tumor, dosed 130 weeks, study length 130 weeks",2.26 mg/kg/day
O=S(=O)(Oc1ccc(Cl)cc1Cl)c1ccccc1,TD50,[1],867 mg/kg/day (inactive)
same,carcinogen call,[2],negative (inactive)
same,TD50,"mouse, strain B6AKF1, females, oral dosing, site: lung, lesion: several types, types named in the paper, dosed 76 weeks, study length 76 weeks",1920 mg/kg/day (inactive)
same,TD50,[3],1680 mg/kg/day (inactive)
same,carcinogen call,[4],negative (inactive)
same,TD50,[5],866 mg/kg/day (inactive)
same,TD50,[6],929 mg/kg/day (inactive)
same,carcinogen call,[7],negative (inactive)
same,TD50,"mouse, strain B6C3F1, females, oral dosing, site: lung, lesion: adenoma, dosed 76 weeks, study length 76 weeks",1920 mg/kg/day (inactive)
same,TD50,[8],218 mg/kg/day (inactive)
same,TD50,[9],266 mg/kg/day (inactive)
same,TD50,[10],924 mg/kg/day (inactive)
O=S(=O)(O)c1ccc(N=Nc2cc(S(=O)(=O)O)c3ccccc3c2O)c2ccccc12,carcinogen call,"mouse, strain ASH-CS1, females, in feed, site: liver, lesion: one or several types, types not named, dosed 80 weeks, study length 80 weeks",negative (inactive)
same,TD50,"mouse, strain ASH-CS1, females, in feed, site: lung, lesion: papillary adenoma, dosed 80 weeks, study length 80 weeks",32900 mg/kg/day (inactive)
same,carcinogen call,"mouse, strain ASH-CS1, males, in feed, site: liver, lesion: adenoma, dosed 80 weeks, study length 80 weeks",negative (inactive)
same,carcinogen call,"mouse, strain ASH-CS1, males, in feed, site: liver, lesion: nodular hyperplasia, dosed 80 weeks, study length 80 weeks",negative (inactive)
same,TD50,"mouse, strain ASH-CS1, males, in feed, site: lung, lesion: papillary adenoma, dosed 80 weeks, study length 80 weeks",12300 mg/kg/day (inactive)
same,carcinogen call,"mouse, strain B6C3F1, females, in feed, site: any site (literature study), lesion: several types, types named in the paper, dosed 103 weeks, study length 104 weeks",negative (inactive)
same,carcinogen call,"mouse, strain B6C3F1, males, in feed, site: any site (literature study), lesion: several types, types named in the paper, dosed 103 weeks, study length 103 weeks",negative (inactive)
same,TD50,"rat, strain Fischer 344, females, in feed, site: any site (literature study), lesion: several types, types named in the paper, dosed 103 weeks, study length 104 weeks",7180 mg/kg/day
same,TD50,"rat, strain Fischer 344, females, in feed, site: clitoral gland, lesion: sebaceous adenoma, dosed 103 weeks, study length 104 weeks",16400 mg/kg/day
same,TD50,"rat, strain Fischer 344, females, in feed, site: uterus, lesion: endometrial stromal polyp, dosed 103 weeks, study length 104 weeks",3270 mg/kg/day (inactive)
same,TD50,"rat, strain Fischer 344, males, in feed, site: any site (literature study), lesion: several types, types named in the paper, dosed 103 weeks, study length 104 weeks",1860 mg/kg/day (inactive)
same,TD50,"rat, strain Fischer 344, males, in feed, site: liver, lesion: hepatocellular adenoma + hepatocellular carcinoma + neoplastic nodule, dosed 103 weeks, study length 104 weeks",9850 mg/kg/day
Nc1ccc(S(=O)(=O)c2ccc(N)cc2)cc1,carcinogen call,"mouse, strain B6C3F1, females, in feed, site: any site (literature study), lesion: several types, types named in the paper, dosed 78 weeks, study length 107 weeks",negative (inactive)
same,carcinogen call,"mouse, strain B6C3F1, males, in feed, site: any site (literature study), lesion: several types, types named in the paper, dosed 78 weeks, study length 107 weeks",negative (inactive)
same,carcinogen call,"rat, strain Fischer 344, females, in feed, site: any site (literature study), lesion: several types, types named in the paper, dosed 78 weeks, study length 105 weeks",negative (inactive)
same,TD50,"rat, strain Fischer 344, males, in feed, site: all sites, lesion: lymphoma, dosed 78 weeks, study length 104 weeks",50.1 mg/kg/day
same,TD50,"rat, strain Fischer 344, males, in feed, site: any site (literature study), lesion: several types, types named in the paper, dosed 78 weeks, study length 104 weeks",22.4 mg/kg/day
same,TD50,"rat, strain Fischer 344, males, in feed, site: peritoneum, lesion: fibrosarcoma + sarcoma, NOS, dosed 78 weeks, study length 104 weeks",56.3 mg/kg/day
same,TD50,"rat, strain Fischer 344, males, in feed, site: peritoneum, lesion: fibrosarcoma, dosed 78 weeks, study length 104 weeks",148 mg/kg/day
same,TD50,"rat, strain Fischer 344, males, in feed, site: peritoneum, lesion: sarcoma, NOS, dosed 78 weeks, study length 104 weeks",91.3 mg/kg/day
same,TD50,"rat, strain Fischer 344, males, in feed, site: spleen, lesion: fibroma, dosed 78 weeks, study length 104 weeks",28.5 mg/kg/day
same,TD50,"rat, strain Fischer 344, males, in feed, site: spleen, lesion: fibrosarcoma + fibroma + sarcoma, NOS, dosed 78 weeks, study length 104 weeks",22.4 mg/kg/day
same,TD50,"rat, strain Fischer 344, males, in feed, site: spleen, lesion: fibrosarcoma, dosed 78 weeks, study length 104 weeks",167 mg/kg/day
same,TD50,"rat, strain Fischer 344, males, in feed, site: spleen, lesion: sarcoma, NOS, dosed 78 weeks, study length 104 weeks",170 mg/kg/day
FC(F)(F)CCl,TD50,"rat, strain Alpk:APfSD, females, by gavage, site: uterus, lesion: adenocarcinoma, dosed 52 weeks, study length 125 weeks",160 mg/kg/day
same,TD50,"rat, strain Alpk:APfSD, males, by gavage, site: testis, lesion: interstitial-cell tumor, dosed 52 weeks, study length 125 weeks",60 mg/kg/day

# — PubChem BioAssay AID1745844 (Carcinogenic Potency Database (CPDB), 2022)
